Experimental data as given in ChEMBL document CHEMBL3865792, “Antioxidant and antitumor activity of trolox, trolox succinate, and α-tocopheryl succinate conjugates with nitroxides” (Eur J Med Chem, 2016).

Tested on: not listed separately
Assay: Cytotoxicity against human RPMI8226 cells assessed as reduction in cell viability after 72 hrs by MTT assay
Type: functional, cell-based
Details: RPMI-8226, 72 h
For Cc1c(C)c2c(c(C)c1OC(=O)CCC(=O)O)CCC(C)(C(=O)NC1CC(C)(C)N([O])C1(C)C)O2 (centres undefined), the IC50 was > 300 µM.
For CC1(C)CC(NC(=O)CCC(=O)O)CC(C)(C)N1[O], the IC50 was > 300 µM.

Tested on: not listed separately
Assay: Cytotoxicity against hamster AG17-1 cells assessed as reduction in cell viability after 72 hrs by MTT assay
Type: toxicity, cell-based, Cricetulus griseus
Details: Chinese hamster
For Cc1c(C)c2c(c(C)c1OC(=O)CCC(=O)O)CCC(C)(C(=O)NC1CC(C)(C)N([O])C1(C)C)O2 (centres undefined), the IC50 at 72 h was > 300 µM.
In the case of CC1(C)CC(NC(=O)CCC(=O)O)CC(C)(C)N1[O], the IC50 at 72 h is reported as > 300 µM.

Tested on: not listed separately
Assay: Ratio of IC50 for human U937 cells to concentration causing antioxidant activity in Salmonella typhimurium TA102 harboring […] mutant
Type: functional, U-937
Details: not given
With Cc1c(C)c2c(c(C)c1OC(=O)CCC(=O)O)CCC(C)(C(=O)NC1CC(C)(C)N([O])C1(C)C)O2 (centres undefined) the Ratio was 100 - 1000.
In the case of CC1(C)CC(NC(=O)CCC(=O)O)CC(C)(C)N1[O], the Ratio is reported as 100 - 1000.

Tested on: not listed separately
Assay: Cytotoxicity against human CEM13 cells assessed as reduction in cell viability after 72 hrs by MTT assay
Type: functional, cell-based
Details: CEM13, 72 h
Compound Cc1c(C)c2c(c(C)c1OC(=O)CCC(=O)O)CCC(C)(C(=O)NC1CC(C)(C)N([O])C1(C)C)O2 (centres undefined) has an IC50 of 205 µM.
In the case of CC1(C)CC(NC(=O)CCC(=O)O)CC(C)(C)N1[O], the IC50 is reported as > 400 µM.

Tested on: Salmonella enterica subsp. enterica serovar Typhimurium
Assay: Antioxidant activity in Salmonella typhimurium TA102 harboring […] mutant assessed as inhibition of t-BuO2H-dependant mutant formation at 30 uM preincubated with compound followed by t-BuO2H addition after 48 hrs by Ames test
Type: functional
Details: not given
Cc1c(C)c2c(c(C)c1OC(=O)CCC(=O)O)CCC(C)(C(=O)NC1CC(C)(C)N([O])C1(C)C)O2 (centres undefined) gave an inhibition of 33%.
In the case of CC1(C)CC(NC(=O)CCC(=O)O)CC(C)(C)N1[O], the inhibition is reported as 41%.

Tested on: Salmonella enterica subsp. enterica serovar Typhimurium
Assay: Antioxidant activity in Salmonella typhimurium TA102 harboring […] mutant assessed as inhibition of t-BuO2H-dependant mutant formation at 0.3 uM preincubated with compound followed by t-BuO2H addition after 48 hrs by Ames test
Type: functional
Details: not given
For Cc1c(C)c2c(c(C)c1OC(=O)CCC(=O)O)CCC(C)(C(=O)NC1CC(C)(C)N([O])C1(C)C)O2 (centres undefined), the inhibition was 6%.
Compound CC1(C)CC(NC(=O)CCC(=O)O)CC(C)(C)N1[O] has an inhibition of 36%.

Tested on: not listed separately
Assay: Ratio of IC50 for human HEPG2 cells to concentration causing antioxidant activity in Salmonella typhimurium TA102 harboring […] mutant
Type: functional
Details: not given
For Cc1c(C)c2c(c(C)c1OC(=O)CCC(=O)O)CCC(C)(C(=O)NC1CC(C)(C)N([O])C1(C)C)O2 (centres undefined), the Ratio was 100 - 1000.
In the case of CC1(C)CC(NC(=O)CCC(=O)O)CC(C)(C)N1[O], the Ratio is reported as 100 - 1000.

Tested on: not listed separately
Assay: Cytotoxicity against human MCF7 cells assessed as reduction in cell viability at 300 uM after 72 hrs by MTT assay
Type: functional
Details: MCF7, 72 h
Work on Cc1c(C)c2c(c(C)c1OC(=O)CCC(=O)O)CCC(C)(C(=O)NC1CC(C)(C)N([O])C1(C)C)O2 (centres undefined) yielded an inhibition at 300 µM of 25%.
CC1(C)CC(NC(=O)CCC(=O)O)CC(C)(C)N1[O] showed an inhibition at 300 µM of 20%.

Tested on: not listed separately
Assay: Cytotoxicity against hamster AG17-1 cells assessed as reduction in cell viability at 300 uM after 72 hrs by MTT assay
Type: toxicity, cell-based, Cricetulus griseus
Details: Chinese hamster, read-out: INH
Cc1c(C)c2c(c(C)c1OC(=O)CCC(=O)O)CCC(C)(C(=O)NC1CC(C)(C)N([O])C1(C)C)O2 (centres undefined) showed a cytotoxicity at 72 h, 300 µM of 27%.
CC1(C)CC(NC(=O)CCC(=O)O)CC(C)(C)N1[O] gave a cytotoxicity at 72 h, 300 µM of 0%.

Tested on: not listed separately
Assay: Ratio of IC50 for human RPMI8226 cells to concentration causing antioxidant activity in Salmonella typhimurium TA102 harboring […] mutant
Type: functional, RPMI-8226
Details: not given
For Cc1c(C)c2c(c(C)c1OC(=O)CCC(=O)O)CCC(C)(C(=O)NC1CC(C)(C)N([O])C1(C)C)O2 (centres undefined), the Ratio was 100 - 1000.
For CC1(C)CC(NC(=O)CCC(=O)O)CC(C)(C)N1[O], the Ratio was 100 - 1000.

Tested on: not listed separately
Assay: Cytotoxicity against human HepG2 cells assessed as reduction in cell viability after 72 hrs by MTT assay
Type: functional, cell-based
Details: HepG2, 72 h
In the case of Cc1c(C)c2c(c(C)c1OC(=O)CCC(=O)O)CCC(C)(C(=O)NC1CC(C)(C)N([O])C1(C)C)O2 (centres undefined), the IC50 is reported as > 300 µM.
In the case of CC1(C)CC(NC(=O)CCC(=O)O)CC(C)(C)N1[O], the IC50 is reported as > 300 µM.

Tested on: not listed separately
Assay: Ratio of IC50 for human MCF7 cells to concentration causing antioxidant activity in Salmonella typhimurium TA102 harboring […] mutant
Type: functional
Details: not given
In the case of Cc1c(C)c2c(c(C)c1OC(=O)CCC(=O)O)CCC(C)(C(=O)NC1CC(C)(C)N([O])C1(C)C)O2 (centres undefined), the Ratio is reported as 100 - 1000.
With CC1(C)CC(NC(=O)CCC(=O)O)CC(C)(C)N1[O] the Ratio was 100 - 1000.

Tested on: Salmonella enterica subsp. enterica serovar Typhimurium
Assay: Antioxidant activity in Salmonella typhimurium TA102 harboring […] mutant assessed as inhibition of t-BuO2H-dependant mutant formation at 3 uM preincubated with compound followed by t-BuO2H addition after 48 hrs by Ames test
Type: functional
Details: not given
Cc1c(C)c2c(c(C)c1OC(=O)CCC(=O)O)CCC(C)(C(=O)NC1CC(C)(C)N([O])C1(C)C)O2 (centres undefined) showed an inhibition of 11%.
For CC1(C)CC(NC(=O)CCC(=O)O)CC(C)(C)N1[O], the inhibition was 49%.

Tested on: not listed separately
Assay: Genotoxicity in Escherichia coli PQ37 expressing lacZ gene assessed as ratio of inducible beta-galactosidase activity to alkaline phosphatase activity at 30 mM after 2 hrs by SOS-chromotest relative to control
Type: toxicity
Details: Escherichia coli PQ37 cells expressing lacZ gene, read-out: FC
Cc1c(C)c2c(c(C)c1OC(=O)CCC(=O)O)CCC(C)(C(=O)NC1CC(C)(C)N([O])C1(C)C)O2 (centres undefined) showed a fold induction at 2 h, 30000 µM of 1.2.

Tested on: not listed separately
Assay: Ratio of IC50 for human CEM13 cells to concentration causing antioxidant activity in Salmonella typhimurium TA102 harboring […] mutant
Type: functional
Details: not given
In the case of Cc1c(C)c2c(c(C)c1OC(=O)CCC(=O)O)CCC(C)(C(=O)NC1CC(C)(C)N([O])C1(C)C)O2 (centres undefined), the Ratio is reported as 100 - 1000.
In the case of CC1(C)CC(NC(=O)CCC(=O)O)CC(C)(C)N1[O], the Ratio is reported as 100 - 1000.

Tested on: not listed separately
Assay: Cytotoxicity against human MT4 cells assessed as reduction in cell viability at 300 uM after 72 hrs by MTT assay
Type: functional
Details: MT4, 72 h
Compound Cc1c(C)c2c(c(C)c1OC(=O)CCC(=O)O)CCC(C)(C(=O)NC1CC(C)(C)N([O])C1(C)C)O2 (centres undefined) has an inhibition at 300 µM of 45%.

Tested on: not listed separately
Assay: Cytotoxicity against human RPMI8226 cells assessed as reduction in cell viability at 300 uM after 72 hrs by MTT assay
Type: functional
Details: RPMI-8226, 72 h
Work on Cc1c(C)c2c(c(C)c1OC(=O)CCC(=O)O)CCC(C)(C(=O)NC1CC(C)(C)N([O])C1(C)C)O2 (centres undefined) yielded an inhibition at 300 µM of 28%.
Compound CC1(C)CC(NC(=O)CCC(=O)O)CC(C)(C)N1[O] has an inhibition at 300 µM of 12%.

Tested on: not listed separately
Assay: Genotoxicity in Escherichia coli PQ37 expressing lacZ gene assessed as ratio of inducible beta-galactosidase activity to alkaline phosphatase activity at 3 mM after 2 hrs by SOS-chromotest relative to control
Type: toxicity
Details: Escherichia coli PQ37 cells expressing lacZ gene, read-out: FC
Compound CC1(C)CC(NC(=O)CCC(=O)O)CC(C)(C)N1[O] has a fold induction at 2 h, 3000 µM of 1.3.

Tested on: not listed separately
Assay: Cytotoxicity against mouse LMTK cells assessed as reduction in cell viability after 72 hrs by MTT assay
Type: toxicity
Details: not given
For Cc1c(C)c2c(c(C)c1OC(=O)CCC(=O)O)CCC(C)(C(=O)NC1CC(C)(C)N([O])C1(C)C)O2 (centres undefined), the IC50 at 72 h was > 300 µM.
For CC1(C)CC(NC(=O)CCC(=O)O)CC(C)(C)N1[O], the IC50 at 72 h was > 300 µM.

Tested on: not listed separately
Assay: Cytotoxicity against human MCF7 cells assessed as reduction in cell viability after 72 hrs by MTT assay
Type: functional, cell-based
Details: MCF7, 72 h
With Cc1c(C)c2c(c(C)c1OC(=O)CCC(=O)O)CCC(C)(C(=O)NC1CC(C)(C)N([O])C1(C)C)O2 (centres undefined) the IC50 was > 300 µM.
In the case of CC1(C)CC(NC(=O)CCC(=O)O)CC(C)(C)N1[O], the IC50 is reported as > 300 µM.

Tested on: not listed separately
Assay: Cytotoxicity against human HepG2 cells assessed as reduction in cell viability at 300 uM after 72 hrs by MTT assay
Type: functional
Details: HepG2, 72 h
With Cc1c(C)c2c(c(C)c1OC(=O)CCC(=O)O)CCC(C)(C(=O)NC1CC(C)(C)N([O])C1(C)C)O2 (centres undefined) the inhibition at 300 µM was 25%.
Compound CC1(C)CC(NC(=O)CCC(=O)O)CC(C)(C)N1[O] has an inhibition at 300 µM of 0%.

Tested on: not listed separately
Assay: Cytotoxicity against mouse LMTK cells assessed as reduction in cell viability at 300 uM after 72 hrs by MTT assay
Type: toxicity
Details: read-out: INH
For Cc1c(C)c2c(c(C)c1OC(=O)CCC(=O)O)CCC(C)(C(=O)NC1CC(C)(C)N([O])C1(C)C)O2 (centres undefined), the cytotoxicity at 72 h, 300 µM was 0%.
CC1(C)CC(NC(=O)CCC(=O)O)CC(C)(C)N1[O] gave a cytotoxicity at 72 h, 300 µM of 18%.

Tested on: Salmonella typhimurium
Assay: Genotoxicity in Salmonella typhimurium TA102 harboring […] mutant assessed as frequency of reversion from histidine auxotrophy to prototrophy at 30 mM after 48 hrs by Ames test (reference value: 209 +/- 10 No _unit)
Type: toxicity, organism-based
Details: salmonella enterica subsp. enterica serovar typhimurium, 30000 µM
Cc1c(C)c2c(c(C)c1OC(=O)CCC(=O)O)CCC(C)(C(=O)NC1CC(C)(C)N([O])C1(C)C)O2 (centres undefined) showed an Activity of 221.
In the case of CC1(C)CC(NC(=O)CCC(=O)O)CC(C)(C)N1[O], the Activity is reported as 211.

Tested on: not listed separately
Assay: Ratio of IC50 for human MT4 cells to concentration causing antioxidant activity in Salmonella typhimurium TA102 harboring […] mutant
Type: functional
Details: not given
For Cc1c(C)c2c(c(C)c1OC(=O)CCC(=O)O)CCC(C)(C(=O)NC1CC(C)(C)N([O])C1(C)C)O2 (centres undefined), the Ratio was 100 - 1000.
In the case of CC1(C)CC(NC(=O)CCC(=O)O)CC(C)(C)N1[O], the Ratio is reported as 100 - 1000.

Tested on: not listed separately
Assay: Cytotoxicity against human MT4 cells assessed as reduction in cell viability after 72 hrs by MTT assay
Type: functional, cell-based
Details: MT4, 72 h
For Cc1c(C)c2c(c(C)c1OC(=O)CCC(=O)O)CCC(C)(C(=O)NC1CC(C)(C)N([O])C1(C)C)O2 (centres undefined), the IC50 was > 300 µM.
In the case of CC1(C)CC(NC(=O)CCC(=O)O)CC(C)(C)N1[O], the IC50 is reported as > 400 µM.

Tested on: not listed separately
Assay: Cytotoxicity against human U937 cells assessed as reduction in cell viability after 72 hrs by MTT assay
Type: functional, cell-based
Details: U-937, 72 h
For Cc1c(C)c2c(c(C)c1OC(=O)CCC(=O)O)CCC(C)(C(=O)NC1CC(C)(C)N([O])C1(C)C)O2 (centres undefined), the IC50 was 163 µM.
With CC1(C)CC(NC(=O)CCC(=O)O)CC(C)(C)N1[O] the IC50 was 170 µM.
